Test results taken from paper PMC12040169 (PLOS Biology, 2025).

Experiment: in vitro
Conditions: human, hela cells, % viability

COc1ccc(-c2cc(=O)[nH]c(=S)s2)cc1 [CBK288355]
viability at 28.5 h, 10 µM: 90.5%

CCC(C(=O)NCC1CCCN(C(C)C)C1)n1cnc2ccccc21 (stereo not shown) [CBK282706]
viability at 28.5 h, 10 µM: 88.6%

Cc1cc(C)n2ncc(C(=O)NCC(c3cccs3)N3CCCC3)c2n1 (stereo not shown) [CBK305675]
viability at 28.5 h, 10 µM: 85.3%

Cc1nonc1CC(=O)N1CCC[C@@H]2[C@H]1C/C=C/Cc1ccccc1OCC(=O)N2C [CBK292062]
viability at 28.5 h, 10 µM: 88.3%

Cc1cc2n(n1)[C@@H](C(F)F)C[C@@H](C1CCN(C(=O)C(C)C)CC1)N2 [CBK284725]
viability at 28.5 h, 10 µM: 88%

O=C(CN1CCOCC1)Nc1c2c(nc3ccccc13)N(c1ccccc1)CC2 [CBK111136G]
viability at 28.5 h, 10 µM: 87.9%

CCn1c(=O)n(CC(=O)N2CC(C)CC(C)C2)c2cccnc21 (stereo not shown) [CBK283845]
viability at 28.5 h, 10 µM: 95.3%

O=C(c1cccnc1)N1C[C@@H]2OCC(=O)N(Cc3ccc(F)cc3)[C@@H]2C1 [CBK289691]
viability at 28.5 h, 10 µM: 96.1%

CS(=O)(=O)c1ccc(-c2cccc(COC3CCN(C(=O)Cc4ccc(C#N)cc4)CC3)c2)cc1 [CBK149513]
viability at 28.5 h, 10 µM: 96.3%

Cc1cc(-c2nnc3n2N=C(c2ccccc2)CS3)n[nH]1 [CBK287944]
viability at 28.5 h, 10 µM: 98.3%

O=C(Cn1cc(C(=O)COc2ccccc2)c2ccccc21)Nc1ccccc1 [CBK267653]
viability at 28.5 h, 10 µM: 110%

Cc1cc(C)n(CCCN(C)Cc2ccc(N3CCCC3=O)cc2)n1 [CBK281827]
viability at 28.5 h, 10 µM: 88.3%

Cc1ccc(N(CC(=O)N/N=C/c2ccccc2)S(=O)(=O)c2ccccc2)cc1 [CBK262090]
viability at 28.5 h, 10 µM: 88.3%

COc1ccc(CC(C(=O)O)C(=O)O)cc1OC [CBK262127]
viability at 28.5 h, 10 µM: 95.9%

Cc1cccnc1Nc1nc(-c2ccccn2)cs1 [CBK267272]
viability at 28.5 h, 10 µM: 91.5%

CC(=O)NC(NC(=S)Nc1sc2c(c1C(N)=O)CCCC2)C(Cl)(Cl)Cl (stereo not shown) [CBK261054]
viability at 28.5 h, 10 µM: 101%

CCOC(=O)c1c(NC(=O)c2cc(-c3ccc(C)c(C)c3)nc3ccccc23)sc2c1CCC(C)C2 (stereo not shown) [CBK262627]
viability at 28.5 h, 10 µM: 96.4%

CSc1nnc(-c2cccc(C)c2)n1CC1CCCCC1 [CBK085418]
viability at 28.5 h, 10 µM: 100%

Cc1cnc(CNC(=O)/C=C/c2ccc(C(C)C)cc2)cn1 [CBK149625]
viability at 28.5 h, 10 µM: 99.4%

Nc1cc(Cl)nc(SCC2CCCCC2)n1 [CBK007970]
viability at 28.5 h, 10 µM: 93.2%

CCC(NC(=O)CCN1Cc2ccccc2C1=O)c1ccc(F)cc1 (stereo not shown) [CBK282657]
viability at 28.5 h, 10 µM: 104%

COc1ccc(S(=O)(=O)NCCN2CCOCC2)c(Cl)c1Cl [CBK269999]
viability at 28.5 h, 10 µM: 95%

CCOC(=O)Cn1cnc2nc3c(cc2c1=O)CC(C)CC3 (stereo not shown) [CBK294402]
viability at 28.5 h, 10 µM: 90.6%

O=[N+]([O-])c1ccc(-c2nc(-c3ccccc3)c(-c3ccc4oc5ccc(-c6[nH]c(-c7ccc([N+](=O)[O-])cc7)nc6-c6ccccc6)cc5c4c3)[nH]2)cc1 [CBK261434]
viability at 28.5 h, 10 µM: 93.9%

O=C(c1cnccn1)N1CCN(c2nc3c(F)cccc3s2)CC1 [CBK287722]
viability at 28.5 h, 10 µM: 91.6%

COc1ccc(C(=O)C2CCCCC23NCCN3)cc1 (stereo not shown) [CBK023140]
viability at 28.5 h, 10 µM: 104%

C[C@@H](Cn1nnc2ccccc21)NC(=O)Cc1cccc(F)c1 [CBK282306]
viability at 28.5 h, 10 µM: 90.8%

Cc1c(C(=O)N2CCCC(c3cc4ncccc4[nH]3)C2)cnn1C (stereo not shown) [CBK283420]
viability at 28.5 h, 10 µM: 94.8%

CCCn1nnc(NC(=O)C(C)Oc2ccc(Cl)cc2Cl)n1 (stereo not shown) [CBK266772]
viability at 28.5 h, 10 µM: 98.6%

CS(=O)(=O)N1CC2(CCN(CC(N)=O)CC2)c2ccccc21 [CBK126678]
viability at 28.5 h, 10 µM: 81.5%

Cc1cc2nc(C3CCCN3C(=O)CN3CCCCC3)[nH]c2cc1C (stereo not shown) [CBK282944]
viability at 28.5 h, 10 µM: 91.3%

COc1ccc(C2(C(=O)NCc3ccc(-c4ccc(C(N)=O)c(C)n4)cc3)CCCC2)cc1 [CBK285647]
viability at 28.5 h, 10 µM: 96%

CC1CCCCN1Cc1nc2c(c(=O)n(C)c(=O)n2C)n1Cc1ccc(Br)cc1 (stereo not shown) [CBK269184]
viability at 28.5 h, 10 µM: 95.3%

Cc1cc2nn(-c3ccccc3)nc2cc1NC(=O)c1ccc(-c2cccc([N+](=O)[O-])c2)o1 [CBK263859]
viability at 28.5 h, 10 µM: 99.6%

O=C(O)c1ccc(NS(=O)(=O)c2cc(Cl)sc2Cl)cc1 [CBK034046]
viability at 28.5 h, 10 µM: 99.9%

CNc1nc(C(C)(C)C)cs1 [CBK025373]
viability at 28.5 h, 10 µM: 88.2%

CC(=O)N1CC[C@H]2NC(=O)CNC(=O)C3(CCCC[C@H]2C1)CCNCC3 [CBK292142]
viability at 28.5 h, 10 µM: 93.8%

CCCC(C)C(=O)Nc1ccncc1 (stereo not shown) [CBK057984]
viability at 28.5 h, 10 µM: 87.1%

O=C(C1CCCO1)N1CCCC(c2cc3cccnc3[nH]2)C1 (stereo not shown) [CBK284978]
viability at 28.5 h, 10 µM: 101%

CCOC(=O)c1cccc(NS(=O)(=O)c2cc(Br)ccc2OC)c1 [CBK034336]
viability at 28.5 h, 10 µM: 63.3%

Cc1ccc(-c2ccc(N3CCN(C(=O)c4ccco4)CC3)nc2)cc1C [CBK037775]
viability at 28.5 h, 10 µM: 106%

O=C(Nc1cccc(Cl)c1Cl)c1cnccn1 [CBK288243]
viability at 28.5 h, 10 µM: 105%

Cc1ccccc1-n1ncc2c1ncn1nc(-c3ccccc3)nc21 [CBK287797]
viability at 28.5 h, 10 µM: 94.3%

CCCc1cc(C(=O)N2CCCN(Cc3cnn(CC)c3)CC2)[nH]n1 [CBK305293]
viability at 28.5 h, 10 µM: 92.3%

CCN1C(=O)N(CC)C2C1NC(=O)N2CCCC(=O)O (stereo not shown) [CBK287131]
viability at 28.5 h, 10 µM: 89.3%

Cn1ncc2c1NC(=O)CC2c1c[nH]nc1-c1ccccc1 (stereo not shown) [CBK287941]
viability at 28.5 h, 10 µM: 99.5%

CC(Cc1ccccn1)N(C)C(=O)c1cccc(N2CCCC2=O)c1 (stereo not shown) [CBK282153]
viability at 28.5 h, 10 µM: 104%

NC1CCN(c2ncccn2)CC1 [CBK174054]
viability at 28.5 h, 10 µM: 98.7%

O=C(CSc1nnc(-c2ccncc2)n1-c1ccccc1)N/N=C/c1ccccc1O [CBK262788]
viability at 28.5 h, 10 µM: 85%

OCc1ccnc2ccccc12 [CBK001746]
viability at 28.5 h, 10 µM: 87.4%

C/C(=N\Nc1cc(-c2ccccc2)nc(C)n1)c1ccc(O)cc1 [CBK261710]
viability at 28.5 h, 10 µM: 87.9%

COc1cccc(NC(=O)CCn2ncc(Cl)c2C)c1 [CBK288012]
viability at 28.5 h, 10 µM: 94.9%

COc1ccc(C(=O)NC(CC(=O)O)c2ccc(OC)cc2)cc1 (stereo not shown) [CBK266188]
viability at 28.5 h, 10 µM: 101%

COc1ccc(C(C)C)cc1-c1cncc(NC(C)CCCC(C)(C)O)n1 (stereo not shown) [CBK065521]
viability at 28.5 h, 10 µM: 93.3%

O=C(c1ccccc1Cl)N1CCN(c2ccc([N+](=O)[O-])c(NCc3cccnc3)c2)CC1 [CBK265866]
viability at 28.5 h, 10 µM: 108%

Cn1ccc(C2CCCCCN2S(=O)(=O)c2ccc(F)cc2)n1 (stereo not shown) [CBK284671]
viability at 28.5 h, 10 µM: 98.8%

CCC(C)c1nnc(C2(c3ccc(Br)cc3)CCOCC2)o1 (stereo not shown) [CBK306229]
viability at 28.5 h, 10 µM: 99.7%

CCN1CCN(c2c(Cl)cccc2NC(=O)c2ccc(-c3cccc([N+](=O)[O-])c3)o2)CC1 [CBK268596]
viability at 28.5 h, 10 µM: 86.4%

O=C(O)c1cccc(-c2cn3ccnc3c(N3CCOCC3)n2)c1 [CBK038053]
viability at 28.5 h, 10 µM: 84%

O=[N+]([O-])c1cc(F)ccc1Oc1cccc(Cl)c1Cl [CBK002604]
viability at 28.5 h, 10 µM: 112%

Cc1cccc2sc(NC(=O)C3COc4ccccc4O3)nc12 (stereo not shown) [CBK287367]
viability at 28.5 h, 10 µM: 113%

O=C(O)CCNS(=O)(=O)c1ccc(Cl)c(Cl)c1 [CBK268815]
viability at 28.5 h, 10 µM: 112%

NS(=O)(=O)c1ccc(NC(=O)CC2SC(=O)NC2=O)cc1 (stereo not shown) [CBK263855]
viability at 28.5 h, 10 µM: 98.9%

COc1cccc(CN2CCN(C(=O)N3CCCCC3)[C@@H](C)C2)c1 [CBK284266]
viability at 28.5 h, 10 µM: 95%

COC1C(O)C(CO)OC1n1cc(I)c(=O)[nH]c1=O (stereo not shown) [CBK201211]
viability at 28.5 h, 10 µM: 95.1%

Cc1ccn(CCNC(=O)c2[nH]c3c(Cl)cccc3c2C)n1 [CBK282608]
viability at 28.5 h, 10 µM: 97.9%

COc1ccccc1N1CCN(CCc2nnc(S)n2-c2ccccc2)CC1 [CBK262212]
viability at 28.5 h, 10 µM: 102%

COc1ccc(C(=O)Nc2ccc(N3CCNCC3)nc2)cc1 [CBK029434T]
viability at 28.5 h, 10 µM: 111%

Cc1ccc(S(=O)(=O)NC2c3cccc4cccc(c34)C2Sc2ccccn2)cc1 (stereo not shown) [CBK265840]
viability at 28.5 h, 10 µM: 91.6%

CCOC(=O)c1sc(NS(=O)(=O)c2cccc(Cl)c2C)nc1-c1ccccc1 [CBK000749]
viability at 28.5 h, 10 µM: 92.7%

Cc1cnc(Nc2cccc(C3CCCN3C(=O)CCOc3ccccc3C)n2)s1 (stereo not shown) [CBK285972]
viability at 28.5 h, 10 µM: 112%

CCCCCNC(=O)C1CCN(Cn2c(=O)oc3cc(Cl)ccc32)CC1 [CBK298290]
viability at 28.5 h, 10 µM: 86.3%

COc1ccc(N2C(=O)NC(=O)/C(=C/c3cn(CC(=O)Nc4ccccc4)c4ccccc34)C2=O)cc1 [CBK263547]
viability at 28.5 h, 10 µM (bulk resorufin, single well): 110%

FC(F)(F)c1cccc(CC2CSC(=S)N2)c1 (stereo not shown) [CBK022895]
viability at 28.5 h, 10 µM: 92.2%

Cn1c(=O)c2c(ncn2Cc2ccc(C#N)cc2)n(C)c1=O [CBK134217]
viability at 28.5 h, 10 µM: 106%

CN1CCN(c2ccc(/C=c3\sc4nc5ccccc5n4c3=O)cc2[N+](=O)[O-])CC1 [CBK263048]
viability at 28.5 h, 10 µM: 89.3%

O=C(CSc1nnc(COc2ccccc2)o1)c1cccc([N+](=O)[O-])c1 [CBK267868]
viability at 28.5 h, 10 µM: 104%

Cc1ccc(O)c(CN[C@@H]2CCC[C@H]2Cc2cc(C)no2)c1 [CBK284936]
viability at 28.5 h, 10 µM: 101%

O=S(=O)(c1cc(Cl)ccc1Cl)N1CCCN(Cc2ccccc2)CC1 [CBK044491]
viability at 28.5 h, 10 µM: 104%

COc1ccccc1-c1nccnc1OC [CBK106811]
viability at 28.5 h, 10 µM: 93.7%

O=C(Nc1ccc(S(=O)(=O)N2CCCCC2)cc1)c1ccc(NS(=O)(=O)c2ccccc2)cc1 [CBK268348]
viability at 28.5 h, 10 µM: 88.3%

COc1cc(OC)cc(C(=O)N2CCC3(CC2)CC(=O)c2c(OC)cc(OC)cc2O3)c1 [CBK164233]
viability at 28.5 h, 10 µM: 105%

CC1(C)COC(=O)N1C1CCN(C(=O)c2cncc(Br)c2)CC1 [CBK038781]
viability at 28.5 h, 10 µM: 81.6%

Cc1nn(C)cc1C(C)NC(=O)c1cn2cccc(C)c2n1 (stereo not shown) [CBK281731]
viability at 28.5 h, 10 µM: 92.1%

Cc1ccc2c(c1)c(NC(=O)OC(C)C)nn2Cc1cc2c(cc1Cl)OCO2 [CBK048652]
viability at 28.5 h, 10 µM: 99.9%

COc1ccc(NC(=O)CSc2cnn[nH]2)c(OC)c1 [CBK269969]
viability at 28.5 h, 10 µM: 76.7%

CN(C)c1ccc(C(=O)N2CCN3C(=O)[C@H](Cc4ccc(F)cc4)NC(=O)[C@H]3C2)cc1 [CBK289601]
viability at 28.5 h, 10 µM: 109%

CCCN(C(=O)c1coc(COc2ccc3sc(C)nc3c2)n1)C1CC1 [CBK306878]
viability at 28.5 h, 10 µM: 84%
